Values joined by “and” are separate entries in the source; they are usually repeats but may differ in a detail not shown here. Equal entries are not always repeated.
Legend:
Assay type in all cases: in vivo, mouse
[1] = system: NZM mice; assay: Survival in NZM lupus model; details: for Age (d), MEAN: NZM group mean; for Age: NZM individual mouse (survival; EOS = 310 days of age); for survival at EOS: NZM mice
Experimental: Six week old lupus-prone, female, MRL/lpr (Jackson Labs, #000485) and non-lupus prone control MRL/MpJ (Jackson Labs, #000486) mice were obtained from Jackson Laboratories (Bar Harbor, Me.) at 6-weeks of age. Spontaneous SLE-prone NZBWF1/J (NZM) (catalog no. 100008) female mice and non-lupus prone (within time from of experiment) NZW/LacJ (catalog no. 001058) female mice were obtained from Jackson Laboratories (Bar Harbor, Me.) at 15-weeks of age. All mice were maintained on a […] light/dark cycle, with food and water available ad libitum. All experimental animal procedures were approved by and in accordance to the regulations of the Institutional Animal Care and Use Committee (IACUC) of Cephalon, Inc; approved IACUC protocol #03-040 and #03-03-041.
The NZM strain acts as a mouse model of genetically-driven, progressive, systemic lupus erythematosus (SLE). The evolution of the disease in NZM mice is characterized by an abnormal polyclonal B cell activation with a high production of various autoantibodies, including those directed against DNA and other nuclear antigens, and against cytoskeleton proteins. Elevated circulating immune complexes can lead to fatal glomerulonephritis in older mice.
(§1) Age mated, female, NZM or NZW/LacJ, mice were matured for the study of lupus nephritis for a total of 7 months or 210 days at which time urine was collected for proteinuria detection. Mice with 0.5-1.0 mg/ml of urine protein as determined by an optical density-based total protein precipitation assay and cross-checked for 30-300 mg/dl of protein as determined by a stick assay were considered proteinuria positive and selected for study entry. Groups were normalized to contain a Gaussian distribution of proteinuria positive animals (i.e., ⅓ low proteinuria, ⅓ medium, ⅓ high) then randomized between groups before ear marking and taking baseline measures including urine and serum collections. A total of five mice from the total population were randomly selected for baseline kidney histology evaluation. Treatments and tests for each group are as described in FIG. 12. Briefly, with a minimum of 10 mice per group, COMPOUND A was administered at 100 mg/kg or 55 mg/kg, both twice a day and orally. […] Vehicle included 3% DMSO, 10% Solutol and 87% PBS. […] End-stage lupus nephritis was evaluated by histopathology and scored by a board certified pathologist for the assessment of total renal damage in diseased animals using the scoring method described by Smith et al (Smith, Dong et al. 2007). […] Day-98 or “end of treatment/study” represents 310 days of age for the NZM animals.

[2] = system: anti-dsDNA antibodies; assay: Serum anti-dsDNA ANA ELISA in NZM mice; details: for A: Anti-dsDNA IgG, MEAN: NZM group mean; for A: Anti-dsDNA IgG: NZM individual mouse; for serum anti-dsDNA ANAs decrease compared to vehicle: NZM mice
Text: The measurement of anti-dsDNA and anti-Smith antigen antibodies was done by an in-house generated custom ELISA assay. Chromatin coated plates were purchased from Inova Diagnostics, Inc. Purified bovine thymus dsDNA (Sigma, St. Louis, […].) or purified bovine Smith antigen (GenWay, San Diego, Calif.) were used as coating antigen for the detection of anti-dsDNA and anti-Smith Ag antibodies respectively. Coated plates were washed with Borate Sulfate Saline (BSS) and blocked with BSS containing 1% Bovine Serum Albumin (BSA) and 0.1% Tween-20 detergent. Standard curves were generated using mouse anti-chromatin antibody (Sigma, 2B1) or 25 week old MRL/lpr serum. Mouse anti-dsDNA antibody (Abcam, Cambridge, Mass.), or mouse anti-Smith antigen antibody (Abcam) were used as standards for each assay. Secondary antibody was purchased from Abcam (goat anti-mouse pAb-HRP), the substrate was purchased from Rockland (Gilbertsville, Pa.) (TMB), and stop reaction buffer was generated using 1 mL of concentrated sulfuric acid into 20 mL of dH2O. Developed plates were read using a Victor-X4 spectrophotometer reading at […] with a reference wavelength of 570 nm. For all ANA ELISA assays, values below the limit of detection set by the lowest point along the standard or set by the manufacturer were considered out of range and were not estimated, but assumed the lowest point along the standard curve for that particular assay.
as §1

[3] = system: NZM mice; assay: Urinalysis total urine protein (proteinuria) in NZM mice; details: for I: Proteinuria, MEAN: NZM group mean; for I: Proteinuria: NZM individual mouse
Experimental: Urine samples were acid precipitated for total protein recovery and analysis. Samples for which enough urine remained were used for Uristix® leukouria analysis (MRL/lpr study only). Briefly, a standard protein solution was prepared from normal mouse sera and was used as a standard for mouse urinary protein assay by turbidity. Standard preparation was as follows: 0, 5, 10, 15, 20, 30, 40, and 50 μL of a 4 mg/mL mouse sera standard protein solution as provided in the kit were added in duplicate into two columns. PBS was added to individual wells to adjust the final volume to 50 μL. For urine sample preparation, urine samples were centrifuged at 9880×g for 3 minutes using a tabletop micro-centrifuge. Urine supernatant (1-50 μL) was added in duplicate. PBS was added to adjust the volume to 50 μL total. For the turbidity assay: 25 μL of 0.1 N HCl was added into blank columns and 250 μL of 3% sulfosalicyclic acid into the test columns. The microplate was incubated for 10 minutes at RT and plates were read using an ELISA reader with single beam at 450 nm. For the Uristix® strip assay, strips were laid out and labeled. Twenty microliters of urine were placed onto each test strip square and incubated for at least 30 seconds before the result was recorded. For all total urine analysis plate-based assays, values below the limit of detection set by the lowest point along the standard or set by the manufacturer were considered out of range and were not estimated, but assumed the lowest point along the standard curve for that particular assay.
as §1

CN1CCN(c2cccc(Nc3nc4c(-c5ccc(S(C)(=O)=O)cc5)cccn4n3)c2)CC1 [COMPOUND A, [8-(4-methanesulfonyl-phenyl)-[1,2,4]triazolo[1,5-a]pyridin-2-yl]-[3-(4-methyl-piperazin-1-yl)-phenyl]-amine]
Age (d), MEAN ([1]; CMPD A 55 mpk bid): 300.2 days | Age (d), MEAN ([1]; CMPD A 100 mpk bid): 291.8 days | Age ([1]; CMPD A 55 mpk bid, 55 mg/kg): 310 d (9×) and 212 d | Age ([1]; CMPD A 100 mpk bid, 100 mg/kg): 310 d (7×) and 268 d (2×) and 212 d | survival at EOS ([1]; COMPOUND A 55 mg/kg orally twice a day): 90% | survival at EOS ([1]; COMPOUND A 100 mg/kg orally twice a day): 70% | A: Anti-dsDNA IgG, MEAN ([2]; CMPD A 55 mpk bid): 16.4 | A: Anti-dsDNA IgG, MEAN ([2]; CMPD A 100 mpk bid): 14.4 | A: Anti-dsDNA IgG ([2]; CMPD A 55 mpk bid, 55 mg/kg): 20.6 and 39.4 and 9.4 and 12.6 and 12.7 and 7.5 and 15.2 and 16.7 and 19.3 and 10.8 | A: Anti-dsDNA IgG ([2]; CMPD A 100 mpk bid, 100 mg/kg): 13.4 and 18.2 and 9.6 and 13.8 and 11.5 and 6.6 and 20.5 and 5.1 and 26.5 and 19.2 | serum anti-dsDNA ANAs decrease compared to vehicle ([2]; COMPOUND A 55 mg/kg, over course of disease): 67.0% | serum anti-dsDNA ANAs decrease compared to vehicle ([2]; COMPOUND A 100 mg/kg, over course of disease): 73.9% | I: Proteinuria, MEAN ([3]; CMPD A 55 mpk bid): 0.56 mg/mL | I: Proteinuria, MEAN ([3]; CMPD A 100 mpk bid): 1.32 mg/mL | I: Proteinuria ([3]; CMPD A 55 mpk bid, 55 mg/kg): 0.41 mg/mL (2×) and 0.50 mg/mL and 0.74 mg/mL and 0.48 mg/mL (2×) and 0.52 mg/mL and 1.11 mg/mL and 0.37 mg/mL and 0.61 mg/mL | I: Proteinuria ([3]; CMPD A 100 mpk bid, “0.00” = BQL, 100 mg/kg): 0.48 mg/mL and 0.55 mg/mL and 0.70 mg/mL and 0.53 mg/mL and 0.44 mg/mL and 0.11 mg/mL and 0.00 mg/mL (3×) and 10.39 mg/mL | total urine protein decrease compared to vehicle ([3]; NZM mice, COMPOUND A 55 mg/kg, over course of disease): 76.25 | total urine protein decrease compared to vehicle ([3]; NZM mice, COMPOUND A 100 mg/kg, over course of disease): 81.8% | urine protein levels relative to age-matched, non-lupus control mice ([3]; NZM mice, COMPOUND A treatment, FIG. 17): below the protein levels of age-matched, non-lupus control mice

O=P1(N(CCCl)CCCl)NCCCO1 (stereo not shown) [CTX, cyclophosphamide, reference compound]
Age (d), MEAN ([1]; CTX 50 mpk 1 × wk): 284.9 days | Age ([1]; CTX 50 mpk 1 × wk): 227 d and 310 d (7×) and 212 d and 240 d | survival at EOS ([1]; CTX 50 mg/kg once weekly ip): 70% | A: Anti-dsDNA IgG, MEAN ([2]; CTX 50 mpk 1 × wk): 30.9 | A: Anti-dsDNA IgG ([2]; CTX 50 mpk 1 × wk): 13.4 and 6.9 and 22.2 and 13.2 and 40.3 and 9.6 and 65.1 and 52.4 and 24.3 and 61.9 | serum anti-dsDNA ANAs decrease compared to vehicle ([2]; CTX 50 mg/kg once weekly ip): 65.3% | I: Proteinuria, MEAN ([3]; CTX 50 mpk 1 × wk): 2.8 mg/mL | I: Proteinuria ([3]; CTX 50 mpk 1 × wk): 11.09 mg/mL and 0.86 mg/mL and 1.44 mg/mL and 0.76 mg/mL and 1.30 mg/mL and 0.71 mg/mL and 8.84 mg/mL and 0.96 mg/mL and 0.58 mg/mL and 1.50 mg/mL | total urine protein decrease compared to vehicle ([3]; NZM mice, CTX 50 mg/kg once weekly ip): 67.1%

C[C@@H]1C[C@H]2[C@@H]3CCC4=CC(=O)C=C[C@]4(C)[C@@]3(F)[C@@H](O)C[C@]2(C)[C@@]1(O)C(=O)CO [Dex, dexamethasone, reference compound]
Age (d), MEAN ([1]; Dex 1.5 mpk 3 × wk): 261.4 days | Age ([1]; Dex 1.5 mpk 3 × wk): 291 d (2×) and 240 d (3×) and 268 d and 310 d (2×) | A: Anti-dsDNA IgG, MEAN ([2]; Dex 1.5 mpk 3 × wk): 42.7 | A: Anti-dsDNA IgG ([2]; Dex 1.5 mpk 3 × wk): 27.2 and 18.9 and 20.0 and 79.5 and 167.5 and 27.8 and 16.2 and 10.9 and 17.1 | I: Proteinuria, MEAN ([3]; Dex 1.5 mpk 3 × wk): 7.86 mg/mL | I: Proteinuria ([3]; Dex 1.5 mpk 3 × wk): 8.43 mg/mL and 10.19 mg/mL (2×) and 11.02 mg/mL and 8.47 mg/mL and 0.35 mg/mL and 7.16 mg/mL and 0.55 mg/mL and 12.36 mg/mL and 9.89 mg/mL
